Assay results from PMC9959817, “Flow-Based Fmoc-SPPS Preparation and SAR Study of Cathelicidin-PY Reveals Selective Antimicrobial Activity” (Molecules, 2023).
In brackets after ≈: the same amount, converted by molar mass. Read-outs that look alike come from different tables or passages of the source. Where a SMILES comes first, the peptide text is derived from it. Bridges are numbered along the chain shown (N, C = ends). Where no end group is shown, it is not given here. [ ]: non-standard residue; d: D form. Dab = NCC[C@H](N)C(=O)O

Experiments:
[1] = system: Candida albicans; conditions: isolation report; cited from earlier work
Text: (§1) Furthermore, these have shown promising anti-inflammatory and specific immune modulatory capabilities in immunocytes, as well as antiviral activity against human immunodeficiency virus (HIV), influenza A virus (I ...

[2] = system: Staphylococcus aureus; conditions: isolation report, assays in Luria Broth (LB); cited from earlier work
Text: as §1

[3] = system: Escherichia coli; conditions: isolation report, assays in Luria Broth (LB); cited from earlier work
Text: as §1

[4] = system: Pseudomonas aeruginosa; conditions: isolation report, assays in Luria Broth (LB); cited from earlier work
Text: as §1

[5] = system: S. aureus (ATCC 29213); experiment: microbe, parasite or virus in culture; format: cell-based, Staphylococcus aureus; conditions: ATCC 29213; read-out: Minimum Inhibitory Concentration
Text: (§2) As we were primarily interested in the clinical potential of cathelicidin-PY (1) and its analogues 2–9, cation-adjusted Mueller-Hinton broth (CAMHB) was implemented during our in vitro antimicrobial screening towards bacteria. However, non-cation adjusted Mueller Hinton broth (MHB) was also implemented to evaluate the cation sensitivity of these AMPs. In each medium, compounds 1–9 were subjected to minimum inhibitory concentration (MIC) assays with E. coli (ATCC 25922), P. aeruginosa (SVB-B9), and S. aureus (ATCC 29213), in accordance with CLSI microbroth dilution protocols (Table 1). It is noteworthy, however, that the initial report of cathelicidin-PY’s isolation documented MIC assays performed in Luria Broth (LB). Furthermore, antifungal activity towards C. albicans was investigated.
(§3) Staphylococcus aureus ATCC 29213, Pseudomonas aeruginosa (SVB-B9) (type strain), and Escherichia coli ATCC 25,922 were grown in either non-cation-adjusted or cation-adjusted Mueller Hinton (MH) broth at 37 °C with shaking (200 rpm). MIC assays were performed in technical triplicate in accordance with the CLSI-recommended protocol. All assays were performed independently on three occasions, with the reported MIC defined as the lowest concentration for which agreement was observed consistently for all replicates.

[6] = system: C. albicans (SC5314); experiment: microbe, parasite or virus in culture; format: cell-based, Candida albicans; conditions: SC5314; read-out: Minimum Inhibitory Concentration
Text: as §2
Antimicrobial susceptibility of Candida albicans SC5314 (type strain) was assessed by broth microdilution in RPMI 1640 media in accordance with the CLSI recommended protocols. All assays were performed independently on three occasions, with the reported MIC defined as the lowest concentration for which agreement was observed consistently for all replicates.

[7] = system: P. aeruginosa (SVB-B9); experiment: microbe, parasite or virus in culture; format: cell-based, Pseudomonas aeruginosa; conditions: for Minimum Inhibitory Concentration: SVB-B9
Text: as §2, §3

[8] = system: E. coli (ATCC 25922); format: cell-based, Escherichia coli; conditions: 37 °C, technical triplicate, three independent occasions
Text: as §2, §3

Compound	MIC [1] [µM]	MIC [2] [µM]	MIC [3] [µM]	MIC [4] [µM]	MIC [5] [µM]	MIC [6] [µM]	Minimum Inhibitory Concentration [7] [µM]	MIC ([7]; P. aeruginosa SVB-B9 type strain, non-cation-adjusted Mueller-Hinton broth (MHB), 37 °C, technical triplicate, three independent occasions, read-out: Minimum Inhibitory Concentration) [µM]	Minimum Inhibitory Concentration ([8]; cation-adjusted Mueller-Hinton broth (CAMHB)) [µM]	Minimum Inhibitory Concentration ([8]; non-cation-adjusted Mueller-Hinton broth (MHB)) [µM]
CC[C@H](C)[C@H](NC(=O)[C@H](Cc1c[nH]cn1)NC(=O)[C@H](CO)NC(=O)[C@@H](NC(=O)[C@@H](NC(=O)[C@@H](NC(=O)[C@@H](NC(=O)[C@H](CCCNC(=N)N)NC(=O)[C@H](CC(C)C)NC(=O)[C@H](CCCCN)NC(=O)[C@H](CCC(=O)O)NC(=O)[C@H](CCCCN)NC(=O)[C@H](CC(C)C)NC(=O)[C@H](CCCCN)NC(=O)[C@@H]1CSSC[C@H](NC(=O)[C@H](CCCCN)NC(=O)[C@@H](N)CCCNC(=N)N)C(=O)N[C@@H](CC(N)=O)C(=O)N[C@@H](Cc2ccccc2)C(=O)N[C@@H](CC(C)C)C(=O)N1)[C@@H](C)O)C(C)C)[C@@H](C)CC)[C@@H](C)O)C(=O)N[C@@H](CC(=O)O)C(=O)N[C@@H](CCCCN)C(=O)N[C@H](C(=O)N[C@@H](CC(C)C)C(=O)N[C@@H](CCCNC(=N)N)C(=O)N1CCC[C@H]1C(=O)N[C@@H](CCC(N)=O)C(=O)NCC(=O)O)C(C)C [Compound 1, Cathelicidin-PY] (H-RKCNFLCKLKEKLRTVITSHIDKVLRPQG-OH; disulfide 3-7)	1.37 (≈ 4.69 µg/mL)	2.74 (≈ 9.38 µg/mL)	1.37 (≈ 4.69 µg/mL)	5.48 (≈ 18.8 µg/mL)	>64	>64				
CC[C@H](C)[C@H](NC(=O)[C@H](Cc1c[nH]cn1)NC(=O)[C@H](CO)NC(=O)[C@@H](NC(=O)[C@@H](NC(=O)[C@@H](NC(=O)[C@@H](NC(=O)[C@H](CCCNC(=N)N)NC(=O)[C@H](CC(C)C)NC(=O)[C@H](CCCCN)NC(=O)[C@H](CCC(=O)O)NC(=O)[C@H](CCCCN)NC(=O)[C@H](CC(C)C)NC(=O)[C@H](CCCCN)NC(=O)[C@@H]1CCNC(=O)C[C@H](NC(=O)[C@H](CCCCN)NC(=O)[C@@H](N)CCCNC(=N)N)C(=O)N[C@@H](CC(N)=O)C(=O)N[C@@H](Cc2ccccc2)C(=O)N[C@@H](CC(C)C)C(=O)N1)[C@@H](C)O)C(C)C)[C@@H](C)CC)[C@@H](C)O)C(=O)N[C@@H](CC(=O)O)C(=O)N[C@@H](CCCCN)C(=O)N[C@H](C(=O)N[C@@H](CC(C)C)C(=O)N[C@@H](CCCNC(=N)N)C(=O)N1CCC[C@H]1C(=O)N[C@@H](CCC(N)=O)C(=O)NCC(=O)O)C(C)C [Compound 8] (H-RKDNFL[Dab]KLKEKLRTVITSHIDKVLRPQG-OH; lactam 3-7)					>64	>64	4 to 8			
RKANFLAKLKEKLRTVITSHIDKVLRPQG [Compound 2]					>64	>64	4 to 8			
polymyxin B sulfate [reference compound]								2	1	1
